Experimental data: paper PMC9995905, “Characteristics of antimicrobial peptide OaBac5mini and its bactericidal mechanism against Escherichia coli” (Frontiers in Veterinary Science, 2023)
“Also recorded” adds a separate entry of the source. Where no end group is shown, it is not given here.

How the values were obtained:
E. coli ATCC 25922 [1] = experiment: microbe, parasite or virus in culture; conditions: ATCC 25922
Method: (§1) MICs of OaBac5mini, amoxicillin, kanamycin, florfenicol and tetracycline were determined using the two-fold broth microdilution method according to the Clinical and Laboratory Standards Institute (CLSI) guidance ([21]). MIC values of the tested antibacterial agents were determined on three independent occasions. Escherichia coli ATCC 25922 was used as the quality control in all the susceptibility tests.

S. aureus ATCC 25923 = experiment: microbe, parasite or virus in culture; conditions: ATCC 25923
Method: as §1

trypsin = experiment: Digestive enzyme sensitivity (inhibition zone assay); conditions: 37°C, 3 h, 50 μg/ml peptide, inhibition zone assay against E. coli ATCC 25922, repeated three times
Method: The sensitivities of OaBac5mini to different pH, temperature, digestive enzymes, and repeated freeze-thawing conditions were determined using the inhibition zone assay as previously described ([23]). For pH sensitivity, OaBac5mini was diluted with each solution whose pH was individually adjusted to 2, 3, 4, 5, 6, 7, 8, 9, 10, 11 with HCl or NaOH, and incubated for 2 h, followed by adjusting the pH to 7 to end the reaction. For temperature sensitivity, the diluted peptide was incubated at 30, 40, 50, 60, 70, 80, 90, and 100°C for 30 min. To determine the digestive enzymes sensitivity, OaBac5mini was incubated with 100 μg/ml pepsin (in pH 2 sterile water, sigma, USA), 5–100 μg/ml trypsin (in pH 6.8 KH2PO4 buffer, sigma, USA) and 100 μg/ml protease K (Solarbio, China) at 37°C for 3 h, respectively. To end the reaction after incubation, the pepsin buffer was adjusted to pH 8, the trypsin solution and protease K solution were incubated at 95°C for 10 min. For repeated freeze-thawing sensitivity, OaBac5mini was frozen and then thawed at room temperature 0–12 times. All the final concentrations of OaBac5mini in sensitivity tests were 50 μg/ml. All experiments were repeated three times.

IPEC-J2 cells = format: cell-based, porcine
Method: The cells were maintained in CO2 incubator (Galaxy R, RS Biotech, Scotland) with 5% CO2 at 37°C. Real time cellular analysis (RTCA) was used to evaluate the proliferation and viability of IPEC-J2 cells. […] Real time cellular analysis was monitored using xCELLigence RTCA DP system (xCELLigence, ACEA biosciences, USA) for 100 h at 15 min intervals. The cell index was normalized by RTCA software 2.0 (xCELLigence, ACEA biosciences, USA).

E. coli IF4 = experiment: microbe, parasite or virus in culture; conditions: IF4
Source text: (§2) The strains of E. coli ATCC 25922 and S. aureus ATCC 25923 were purchased from the American Type Culture Collection (ATCC, Manassas, VA, United States). The strains of E. coli W13, E. coli IF4, E. coli 2, and E. coli 17 were individually isolated from the livers of diseased chickens infected by E. coli. The strains of S. aureus B5, S. aureus B9, S. aureus B54, and S. aureus B63 were individually isolated from the milk of cows with mastitis. These clinical isolates were all identified by the VITEK-32 system (bioMérieux, France) and PCR amplification sequencing.
as §1

S. aureus B63 = experiment: microbe, parasite or virus in culture; conditions: B63
Source text: as §2, §1

S. aureus B54 = experiment: microbe, parasite or virus in culture; conditions: B54
Source text: as §2, §1

S. aureus B9 = experiment: microbe, parasite or virus in culture; conditions: B9
Source text: as §2, §1

E. coli W13 = experiment: microbe, parasite or virus in culture; conditions: W13
Source text: as §2, §1

E. coli 2 = experiment: microbe, parasite or virus in culture; conditions: 2
Source text: as §2, §1

E. coli 17 = experiment: microbe, parasite or virus in culture; conditions: 17
Source text: as §2, §1

S. aureus B5 = experiment: microbe, parasite or virus in culture; conditions: B5
Source text: as §2, §1

E. coli ATCC 25922 [2] = experiment: Permeability of the outer membrane (NPN uptake); format: cell-based, Escherichia coli; conditions: 25, 50, 100 and 200 μg/ml; 10 μM NPN; 60 min; P < 0.01; n = 3
Method: The NPN uptake assay was conducted following the instructions of […] and […] ([25]) with minor modifications. In brief, E. coli. […] Fluorescence units were monitored immediately using INFINITE 200 PRO (Infinite® 2000, TECAN, Austria) at the excitation wavelength of 350 nm and emission wavelength of 420 nm for 100 min at 5 min intervals. Experiments were performed in biological triplicate.

## RFRPPIRRPPIRPPFRPPFRPPVR [OaBac5mini]
E. coli ATCC 25922 [1]
  MIC against E. coli ATCC 25922: 25 µg/mL
S. aureus ATCC 25923
  MIC against S. aureus ATCC 25923: >250 µg/mL
trypsin; trypsin 20 to 100 μg/ml in pH 6.8 KH2PO4 buffer
  Antibacterial activity after treatment with trypsin 20 to 100 μg/ml: completely lost activity
trypsin; trypsin ≤ 10 μg/ml (< 20 μg/mL) in pH 6.8 KH2PO4 buffer
  Antibacterial activity after treatment with trypsin at low concentrations: stable antibacterial activity; also recorded: no significant effect
IPEC-J2 cells
  Cell indexes of IPEC-J2 cells at 400 μg/ml compared to the control group: didn't change significantly
  Cell indexes of treated IPEC-J2 cells compared with the control group: significant increase
E. coli IF4
  MIC against E. coli IF4: 2.60 µg/mL
S. aureus B63
  MIC against S. aureus B63: 208.33 µg/mL
S. aureus B54
  MIC against S. aureus B54: 250 µg/mL
S. aureus B9
  MIC against S. aureus B9: 250 µg/mL
E. coli W13
  MIC against E. coli W13: 3.26 µg/mL
E. coli 2
  MIC against E. coli 2: 1.95 µg/mL
E. coli 17
  MIC against E. coli 17: 3.26 µg/mL
S. aureus B5
  MIC against S. aureus B5: >250 µg/mL
E. coli ATCC 25922 [2]
  Average fluorescence intensity of NPN (outer membrane permeability) compared with the negative control: significantly increased
